Values quoted from earlier work in patent US20040175402A1, “Formulation” (priority 2001, published 2004).

Assays:
[1] = test system: human breast cancer cells; settings: human breast cancer cells in vitro

C[C@]12CC[C@@H]3c4ccc(O)cc4C[C@@H](CCCCCCCCC[S+]([O-])CCCC(F)(F)C(F)(F)F)[C@H]3[C@@H]1CC[C@@H]2O (stereo partly drawn) [Fulvestrant, 7α-[9-(4,4,5,5,5-Pentafluoropentylsulphinyl)nonyl]oestra-1,3-5(10)-triene-3,17β-diol]
block of uterotrophic action of oestradiol (monkeys): blocks completely the uterotrophic action of oestradiol | block of growth stimulatory action of oestradiol [1]: completely blocks the growth stimulatory action of oestradiol | block of uterotrophic action of oestradiol (rats): blocks completely the uterotrophic action of oestradiol | block of uterotrophic action of oestradiol (mice): blocks completely the uterotrophic action of oestradiol
